The results in this text go back to patent US20230117034A1, “PYRAZOLOTRIAZINES” (Bayer Aktiengesellschaft, priority 2019, published 2023).

In assay [1] the target is T1, CYCLIN K (nuclear staining in CAL-120 cells) (Homo sapiens, UniProt O75909).
T1 construct: endogenous in cells; host or cells: CAL-120 human breast cancer cells (DSMZ ACC 459)
Briefly: CYCLIN K nuclear protein level: immunofluorescence high content analysis (CAL-120). Format: cell-based. As to conditions: 24 h, 50% reduction of nuclear CCNK staining intensity, median, read-out: CYCLIN K degradation IF, DC50-[mol/l] (median). A digest of the protocol:
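Readout is automated confocal image analysis of nuclear cyclin K immunofluorescence (Hoechst nuclei) after PFA fixation. Cells were CAL-120, exposed to compound dose-response 24 h at 37 °C; values are DC50 for halving nuclear CCNK signal relative to DMSO and control wells.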

Assay [2] has as its target T2, CDK12 (nuclear staining in CAL-120 cells) (Homo sapiens, UniProt Q9NYV4).
T2 construct: endogenous in cells; host or cells: CAL-120 human breast cancer cells (DSMZ ACC 459)
As to the kind of experiment: CDK12 nuclear protein level: immunofluorescence/high content analysis (CAL-120). To be noted: for DC50: CAL-120 cells, 24 h, immunofluorescence, 50% reduction of nuclear CDK12 staining intensity, median, read-out: CDK12 degradation IF, DC50- [mol/l] (median); for (IC50 CDK12 high ATP) to (Degradation DC50 CDK12) ratio: ratio of IC50 CDK12 high ATP kinase assay to DC50 CDK12 degradation (IF, CAL-120). Format: cell-based. A digest of the protocol:
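DC50 is the degrader concentration that halves nuclear CDK12 immunofluorescence relative to controls, measured by high-content imaging. CAL-120 cells were exposed to compound for 24 h at 37 °C before PFA fixation, and signal was normalized to DMSO and control wells.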

The target in assay [3] is T3, CDK9/CycT1 (Homo sapiens, UniProt P50750).
T3 construct: Recombinant full-length His-tagged human CDK9 and CycT1; purchased Life Technologies PV4131; host or cells: insect cells
Briefly: CDK9/CycT1 high ATP kinase assay (TR-FRET, 2 mM ATP). Format: biochemical. To be noted: 2 mM ATP (high ATP); median; read-out: CDK9/CyclinT1, 2 mM ATP (high ATP), IC50 (median). A digest of the protocol: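 Full-length His-tagged human CDK9/CycT1 (insect cell, ~0.5 μg/mL) preincubated 15 min at 22 °C with compound in Tris pH 8.0, MgCl2, DTT buffer before reaction with biotinylated peptide substrate at high ATP (2 mM).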
For orientation: TR-FRET usually uses a lanthanide donor and a delayed reading to cut background.

T2 sequence (Q9NYV4 whole entry): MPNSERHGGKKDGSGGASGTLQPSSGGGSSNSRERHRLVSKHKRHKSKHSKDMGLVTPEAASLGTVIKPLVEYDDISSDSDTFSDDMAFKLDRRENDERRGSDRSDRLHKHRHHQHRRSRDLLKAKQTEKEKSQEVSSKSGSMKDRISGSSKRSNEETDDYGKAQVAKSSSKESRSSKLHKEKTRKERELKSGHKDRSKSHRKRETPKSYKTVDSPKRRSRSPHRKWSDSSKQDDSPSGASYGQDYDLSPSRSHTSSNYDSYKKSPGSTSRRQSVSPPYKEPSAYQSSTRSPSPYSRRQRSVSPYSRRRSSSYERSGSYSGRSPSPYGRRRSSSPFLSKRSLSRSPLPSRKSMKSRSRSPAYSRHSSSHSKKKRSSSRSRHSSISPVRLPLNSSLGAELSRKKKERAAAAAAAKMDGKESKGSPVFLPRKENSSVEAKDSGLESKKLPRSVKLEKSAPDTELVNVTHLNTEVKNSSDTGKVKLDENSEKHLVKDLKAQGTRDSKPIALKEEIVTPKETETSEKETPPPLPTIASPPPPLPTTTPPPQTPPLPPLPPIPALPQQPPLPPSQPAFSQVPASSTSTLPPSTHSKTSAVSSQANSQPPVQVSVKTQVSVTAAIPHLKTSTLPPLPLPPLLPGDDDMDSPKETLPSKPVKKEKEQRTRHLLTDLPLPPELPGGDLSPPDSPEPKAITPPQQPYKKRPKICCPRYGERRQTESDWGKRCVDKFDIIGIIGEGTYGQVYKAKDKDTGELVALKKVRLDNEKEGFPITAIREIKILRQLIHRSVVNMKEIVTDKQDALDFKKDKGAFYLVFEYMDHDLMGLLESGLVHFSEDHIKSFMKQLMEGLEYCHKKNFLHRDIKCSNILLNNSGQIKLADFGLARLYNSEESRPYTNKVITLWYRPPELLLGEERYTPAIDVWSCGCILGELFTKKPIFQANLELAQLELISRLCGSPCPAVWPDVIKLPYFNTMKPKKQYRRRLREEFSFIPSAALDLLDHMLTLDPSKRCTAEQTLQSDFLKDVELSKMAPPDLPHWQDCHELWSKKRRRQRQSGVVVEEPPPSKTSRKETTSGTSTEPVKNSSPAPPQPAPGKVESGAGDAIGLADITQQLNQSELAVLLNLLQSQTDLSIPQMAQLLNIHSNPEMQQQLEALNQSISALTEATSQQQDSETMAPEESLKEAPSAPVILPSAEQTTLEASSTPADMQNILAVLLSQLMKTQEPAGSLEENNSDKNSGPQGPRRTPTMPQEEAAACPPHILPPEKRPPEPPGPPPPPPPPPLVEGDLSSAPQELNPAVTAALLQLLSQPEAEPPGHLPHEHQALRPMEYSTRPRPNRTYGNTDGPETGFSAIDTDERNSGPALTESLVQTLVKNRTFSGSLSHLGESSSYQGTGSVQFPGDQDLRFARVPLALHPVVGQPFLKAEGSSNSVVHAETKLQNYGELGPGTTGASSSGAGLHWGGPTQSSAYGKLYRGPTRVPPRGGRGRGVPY
T2 sequence (O75909 whole entry partner): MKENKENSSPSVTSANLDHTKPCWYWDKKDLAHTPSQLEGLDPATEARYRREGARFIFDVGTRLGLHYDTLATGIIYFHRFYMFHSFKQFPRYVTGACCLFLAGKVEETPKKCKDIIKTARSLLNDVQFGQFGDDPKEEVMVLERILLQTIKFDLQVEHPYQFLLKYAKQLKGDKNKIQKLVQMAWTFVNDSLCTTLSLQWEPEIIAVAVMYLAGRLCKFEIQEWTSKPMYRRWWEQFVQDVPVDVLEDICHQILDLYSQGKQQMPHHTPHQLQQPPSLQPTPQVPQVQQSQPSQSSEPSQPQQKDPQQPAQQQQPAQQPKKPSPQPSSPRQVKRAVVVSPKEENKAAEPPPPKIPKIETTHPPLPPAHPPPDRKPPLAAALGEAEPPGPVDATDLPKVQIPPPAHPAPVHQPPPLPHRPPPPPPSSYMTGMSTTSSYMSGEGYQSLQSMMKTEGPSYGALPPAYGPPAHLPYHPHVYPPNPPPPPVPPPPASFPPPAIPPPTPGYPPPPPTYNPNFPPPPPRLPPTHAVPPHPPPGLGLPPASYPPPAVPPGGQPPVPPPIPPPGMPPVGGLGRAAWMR
T1 sequence (O75909 whole entry): as the sequence (O75909 whole entry partner) above
T1 sequence (Q9NYV4 whole entry partner): as the sequence (Q9NYV4 whole entry) above
T3 sequence (P50750 whole entry): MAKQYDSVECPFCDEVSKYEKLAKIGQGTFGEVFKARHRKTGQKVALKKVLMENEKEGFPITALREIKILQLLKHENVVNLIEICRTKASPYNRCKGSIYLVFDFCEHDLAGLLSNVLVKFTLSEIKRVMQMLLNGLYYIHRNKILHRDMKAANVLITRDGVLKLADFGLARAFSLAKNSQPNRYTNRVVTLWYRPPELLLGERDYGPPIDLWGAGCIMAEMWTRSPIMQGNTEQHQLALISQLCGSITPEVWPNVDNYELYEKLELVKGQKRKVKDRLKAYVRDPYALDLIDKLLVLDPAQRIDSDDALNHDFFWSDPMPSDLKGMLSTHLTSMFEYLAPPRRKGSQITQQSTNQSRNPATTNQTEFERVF
T3 sequence (O60563 whole entry partner): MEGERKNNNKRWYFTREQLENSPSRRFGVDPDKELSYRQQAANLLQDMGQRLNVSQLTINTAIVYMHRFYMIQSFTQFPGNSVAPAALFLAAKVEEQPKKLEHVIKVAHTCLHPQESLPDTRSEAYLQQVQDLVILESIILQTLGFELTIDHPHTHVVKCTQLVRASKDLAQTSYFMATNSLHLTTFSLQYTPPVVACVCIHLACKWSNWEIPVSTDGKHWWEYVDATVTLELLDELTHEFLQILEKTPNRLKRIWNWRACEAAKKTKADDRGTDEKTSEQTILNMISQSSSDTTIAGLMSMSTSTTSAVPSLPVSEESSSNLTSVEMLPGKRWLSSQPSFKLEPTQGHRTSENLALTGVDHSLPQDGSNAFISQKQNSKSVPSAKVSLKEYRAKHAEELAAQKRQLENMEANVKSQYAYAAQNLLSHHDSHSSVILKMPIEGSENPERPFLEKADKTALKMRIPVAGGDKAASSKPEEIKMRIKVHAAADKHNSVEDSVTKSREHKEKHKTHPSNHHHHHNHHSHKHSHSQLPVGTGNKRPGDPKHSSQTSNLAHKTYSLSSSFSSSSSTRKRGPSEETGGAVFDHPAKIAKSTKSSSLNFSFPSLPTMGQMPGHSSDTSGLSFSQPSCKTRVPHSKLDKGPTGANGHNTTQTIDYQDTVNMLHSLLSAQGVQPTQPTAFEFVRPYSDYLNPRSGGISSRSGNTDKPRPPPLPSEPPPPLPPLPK

Regarding `Clc1ccc(-c2nnc(CNc3nc(N4CCOCC4)nc4c(Br)cnn34)[nH]2)cc1` [Example 45, 8-bromo-N-{[5-(4-chlorophenyl)-4H-1,2,4-triazol-3-yl]methyl}-2-(morpholin-4-yl)pyrazolo[1,5-a][1,3,5]triazin-4-amine], the DC50 was 44.4 nM in assay [1] and 69.2 nM in assay [2]. In addition, in assay [2], the “(IC50 CDK12 high ATP) to (Degradation DC50 CDK12) ratio” value is listed as 32. For the same compound, the IC50 in assay [3] worked out at 3410 nM.

Regarding `CN1CCN(c2nc(NCc3nc4ccccc4[nH]3)n3ncc(C4CC4(F)F)c3n2)CC1` (stereo not shown) [Example 428, N-(1H-benzimidazol-2-ylmethyl)-8-(2,2-difluorocyclopropyl)-2-(4-methylpiperazin-1-yl)pyrazolo[1,5-a][1,3,5]triazin-4-amine], the DC50 in assay [1] came to 6.19 nM. Besides, in assay [2], the DC50 came to 7.03 nM and the “(IC50 CDK12 high ATP) to (Degradation DC50 CDK12) ratio” value is given as over 2847. For the same compound, in assay [3], the IC50 was over 20000 nM.

For `Fc1ccc2[nH]c(CNc3nc(N4CCOCC4)nc4c(C(F)(F)F)cnn34)nc2c1F` [Example 426, N-[(4,5-difluoro-1H-benzimidazol-2-yl)methyl]-2-(morpholin-4-yl)-8-(trifluoromethyl)pyrazolo [1,5-a][1,3,5]triazin-4-amine], the DC50 in assay [1] amounted to 0.511 nM. For the same compound, in assay [2], the DC50 was determined as 0.751 nM and the “(IC50 CDK12 high ATP) to (Degradation DC50 CDK12) ratio” value came to 32. The IC50 in assay [3] came out at 12700 nM.

Regarding `Brc1cnn2c(NCc3nc4ccccc4[nH]3)nc(N3CCCCC3)nc12` [Example 46, N-[(1H-benzimidazol-2-yl)methyl]-8-bromo-2-(piperidin-1-yl)pyrazolo[1,5-a][1,3,5]triazin-4-amine], the DC50 is 1.54 nM in assay [1] and 18 nM in assay [2]. Further, the “(IC50 CDK12 high ATP) to (Degradation DC50 CDK12) ratio” value in assay [2] turned out to be 186. Further, in assay [3], the IC50 was over 20000 nM.

`O=C(O)C(F)(F)F.c1ccc2[nH]c(CNc3nc(N4CCOCC4)nc4c(-c5cncs5)cnn34)nc2c1` [Example 441, trifluoroacetic acid-N-[(1H-benzimidazol-2-yl)methyl]-2-(morpholin-4-yl)-8-(1,3-thiazol-5-yl)pyrazolo[1,5-a][1,3,5]triazin-4-amine (1/1)]: the DC50 in assay [1] was determined as 2.25 nM; in assay [2], 6.18 nM. The “(IC50 CDK12 high ATP) to (Degradation DC50 CDK12) ratio” value in assay [2] was determined as 676. Further, the IC50 in assay [3] was over 20000 nM.

Regarding `FC(F)(F)c1cccc(-c2nnc(CNc3nc(N4CCOCC4)nc4c(Br)cnn34)[nH]2)c1` [Example 52, 8-bromo-2-(morpholin-4-yl)-N-({5-[3-(trifluoromethyl)phenyl]-4H-1,2,4-triazol-3-yl}methyl)pyrazolo[1,5-a][1,3,5]triazin-4-amine], the DC50 in assay [1] was 2.83 nM. Moreover, in assay [2], the DC50 amounted to 20.5 nM and the “(IC50 CDK12 high ATP) to (Degradation DC50 CDK12) ratio” value is reported as 80. Also, in assay [3], the IC50 was 1840 nM.

Regarding `N#Cc1cccc(-c2c[nH]c(CNc3nc(N4CCOCC4)nc4c(Br)cnn34)n2)c1` [Example 42, 3-[2-({[8-bromo-2-(morpholin-4-yl)pyrazolo[1,5-a][1,3,5]triazin-4-yl]amino}methyl)-1H-imidazol-4-yl]benzonitrile], the DC50 in assay [1] came out at 0.587 nM; in assay [2], 1.25 nM. Besides, the “(IC50 CDK12 high ATP) to (Degradation DC50 CDK12) ratio” value in assay [2] amounted to 324. Further, the IC50 in assay [3] came to 937 nM.

Consider `CC(C)(O)COc1nc(NCc2nc3ccccc3[nH]2)n2ncc(Br)c2n1` [Example 398, 1-[(4-{[(1H-benzimidazol-2-yl)methyl]amino}-8-bromopyrazolo[1,5-a][1,3,5]triazin-2-yl)oxy]-2-methylpropan-2-ol], for which, in assay [1], the DC50 turned out to be 10.4 nM. In assay [2], the DC50 stood at 66.2 nM and the “(IC50 CDK12 high ATP) to (Degradation DC50 CDK12) ratio” value amounted to 221. Moreover, the IC50 in assay [3] was over 20000 nM.

As for `Cc1cccc(-c2nnc(CNc3nc(N4CCOCC4)nc4c(Br)cnn34)[nH]2)c1` [Example 40, 8-bromo-N-{[5-(3-methylphenyl)-4H-1,2,4-triazol-3-yl]methyl}-2-(morpholin-4-yl)pyrazolo[1,5-a][1,3,5]triazin-4-amine], the DC50 in assay [1] amounted to 0.611 nM. In assay [2], the DC50 is 4.58 nM and the “(IC50 CDK12 high ATP) to (Degradation DC50 CDK12) ratio” value is 532. The IC50 in assay [3] came to 2820 nM.

Turning to `Clc1cccc(-c2nnc(CNc3nc(N4CCOCC4)nc4c(Br)cnn34)[nH]2)c1` [Example 51, 8-bromo-N-{[5-(3-chlorophenyl)-4H-1,2,4-triazol-3-yl]methyl}-2-(morpholin-4-yl)pyrazolo[1,5-a][1,3,5]triazin-4-amine], in assay [1], the DC50 stood at 3.15 nM. In addition, in assay [2], the DC50 turned out to be 7.81 nM and the “(IC50 CDK12 high ATP) to (Degradation DC50 CDK12) ratio” value turned out to be 222. For the same compound, in assay [3], the IC50 stood at 1290 nM.

For `C[C@H]1COCCN1c1nc(NCc2nc3ccccc3[nH]2)n2ncc(Br)c2n1` [Example 57, N-[(1H-benzimidazol-2-yl)methyl]-8-bromo-2-[(3S)-3-methylmorpholin-4-yl]pyrazolo[1,5-a][1,3,5]triazin-4-amine], the DC50 in assay [1] is 0.189 nM. For the same compound, in assay [2], the DC50 is 1.55 nM and the “(IC50 CDK12 high ATP) to (Degradation DC50 CDK12) ratio” value stood at 669. In addition, the IC50 in assay [3] was 6670 nM.

With `CC1(C)CN(c2nc(NCc3nc4ccccc4[nH]3)n3ncc(Br)c3n2)CCO1` [Example 58, N-[(1H-benzimidazol-2-yl)methyl]-8-bromo-2-(2,2-dimethylmorpholin-4-yl)pyrazolo[1,5-a][1,3,5]triazin-4-amine], the DC50 in assay [1] turned out to be 1.66 nM. Also, in assay [2], the DC50 amounted to 26.1 nM and the “(IC50 CDK12 high ATP) to (Degradation DC50 CDK12) ratio” value was found to be 246. Besides, the IC50 in assay [3] was over 20000 nM.

`CCc1cnn2c(NCc3nc4ccccc4[nH]3)nc(N3CCN(C)CC3)nc12` [Example 434, N-[(1H-benzimidazol-2-yl)methyl]-8-ethyl-2-(4-methylpiperazin-1-yl)pyrazolo[1,5-a][1,3,5] triazin-4-amine]: in assay [1], the DC50 came to 2.06 nM. Moreover, in assay [2], the DC50 turned out to be 5 nM and the “(IC50 CDK12 high ATP) to (Degradation DC50 CDK12) ratio” value is listed as over 3530. Also, in assay [3], the IC50 was over 20000 nM.

`Brc1cnn2c(NCc3nc4ccccc4[nH]3)nc(N3CCCC3)nc12` [Example 47, N-[(1H-benzimidazol-2-yl)methyl]-8-bromo-2-(pyrrolidin-1-yl)pyrazolo[1,5-a][1,3,5]triazin-4-amine]: the DC50 in assay [1] turned out to be 3.98 nM. Further, in assay [2], the DC50 worked out at 5.75 nM and the “(IC50 CDK12 high ATP) to (Degradation DC50 CDK12) ratio” value was 1252. The IC50 in assay [3] was over 20000 nM.

As for `C[C@@H]1COCCN1c1nc(NCc2nc3ccccc3[nH]2)n2ncc(Br)c2n1` [Example 56, N-[(1H-benzimidazol-2-yl)methyl]-8-bromo-2-[(3R)-3-methylmorpholin-4-yl]pyrazolo[1,5-a][1,3,5]triazin-4-amine], the DC50 came out at 2.19 nM in assay [1] and 15.1 nM in assay [2]. Further, the “(IC50 CDK12 high ATP) to (Degradation DC50 CDK12) ratio” value in assay [2] turned out to be 352. Also, the IC50 in assay [3] is over 20000 nM.

For `OC[C@@H]1CCCCN1c1nc(NCc2nc3ccccc3[nH]2)n2ncc(Br)c2n1` [Example 59, [(2S)-1-(4-{[(1H-benzimidazol-2-yl)methyl]amino}-8-bromopyrazolo[1,5-a][1,3,5]triazin-2-yl)piperidin-2-yl]methanol], in assay [1], the DC50 is 2.85 nM. For the same compound, in assay [2], the DC50 worked out at 5.26 nM and the “(IC50 CDK12 high ATP) to (Degradation DC50 CDK12) ratio” value was determined as 104. Moreover, the IC50 in assay [3] amounted to 10700 nM.

`Fc1ccc2[nH]c(CNc3nc(N4CCN5CCC4CC5)nc4c(C(F)(F)F)cnn34)nc2c1F` [Example 407, 2-(1,4-diazabicyclo[3.2.2]nonan-4-yl)-N-[(4,5-difluoro-1H-benzimidazol-2-yl)methyl]-8-(trifluoromethyl)pyrazolo[1,5-a][1,3,5]triazin-4-amine]: the values for the DC50 in assay [1] and in assay [2] were 0.643 nM and 2.31 nM, respectively. Further, the “(IC50 CDK12 high ATP) to (Degradation DC50 CDK12) ratio” value in assay [2] is recorded as 306. The IC50 in assay [3] was over 20000 nM.

For the compound `FC(F)Cc1cnn2c(NCc3nc4ccccc4[nH]3)nc(N3CCOCC3)nc12.O=C(O)C(F)(F)F` [Example 444, trifluoroacetic acid N-[(1H-benzimidazol-2-yl)methyl]-8-(2,2-difluoroethyl)-2-(morpholin-4-yl)pyrazolo[1,5-a][1,3,5]triazin-4-amine], the DC50 in assay [1] amounted to 5.91 nM. Further, in assay [2], the DC50 was determined as 7.88 nM and the “(IC50 CDK12 high ATP) to (Degradation DC50 CDK12) ratio” value was found to be 1080. In assay [3], the IC50 was over 20000 nM.

For `Brc1cnn2c(NCc3nc4ccccc4[nH]3)nc(OC3CCNCC3)nc12` [Example 411, N-[(1H-benzimidazol-2-yl)methyl]-8-bromo-2-[(piperidin-4-yl)oxy]pyrazolo[1,5-a][1,3,5]triazin-4-amine], the values for the DC50 in assay [1] and in assay [2] were 15.9 nM and 44.8 nM, respectively. Also, the “(IC50 CDK12 high ATP) to (Degradation DC50 CDK12) ratio” value in assay [2] was over 446. Further, in assay [3], the IC50 is over 20000 nM.
